This is an account of results in ChEMBL document CHEMBL3097993, “Synthesis and initial biological evaluation of new mimics of the LXR-modulator 22(S)-hydroxycholesterol” (2014).

The target in assay [1] is T1, Liver X receptor (Homo sapiens) (UniProt Q13133+P55055). Kind of assay: Antagonist activity at LXR in human myotubes assessed as downregulation of SCD1 expression at 10 uM after 4 days by qPCR analysis. For orientation: In qPCR the cycle at which signal appears reflects the starting amount.
The species entered for assay [2] is Homo sapiens. The experiment in a line: Inhibition of tularic-induced lipogenesis in human myotubes at 10 uM after 4 days by scintillation counting analysis in presence of [1-14C]acetate relative to control. It counts as functional.
For assay [3], the species on record is Homo sapiens. The experiment in a line: (§1) Induction of lipogenesis in human myotubes at 10 uM after 4 days by scintillation counting analysis in presence of [1-14C]acetate relative to control. The assay is classed as functional.
For assay [4], the species on record is Homo sapiens. Kind of assay: Induction of lipogenesis in human myotubes at 1 uM after 4 days by scintillation counting analysis in presence of [1-14C]acetate. The assay is classed as functional.
For assay [5], the target named is T1, Liver X receptor (Homo sapiens). Kind of assay: Agonist activity at LXR in human myotubes assessed as upregulation of SCD1 expression at 10 uM after 4 days by qPCR analysis.
The nature of assay [6]: as §1. It counts as functional.

Calls of active or inactive are those of the source. The rule behind the calls is not given here.

For the compound `CC(C)CC[C@H](O)[C@@H](C)[C@H]1CC[C@H]2[C@@H]3CC=C4C[C@@H](O)CC[C@]4(C)[C@H]3CC[C@]12C`, the result in assay [1] was Active. Besides, in assay [2], the inhibition entry was “Active”. Moreover, the result in assay [3] was inactive.
For `O=S(=O)(c1ccccc1)N(CC(F)(F)F)c1ccc(C(O)(C(F)(F)F)C(F)(F)F)cc1`, the outcome in assay [4] was Active.
On to `CC(C)CC[C@H](O)[C@@H](C)COCc1ccc(S(=O)(=O)N2CCCC2)cc1`, for which the result in assay [5] was Active. Also, the “fold change (FC)” value in assay [6] is 2.
